Patent US20150110849A1, “ANTIMICROBIAL ACCESSORY FOR AN IMPLANTABLE MEDICAL DEVICE” (Medtronic, Inc., priority 2009, published 2015)
Structures can show the parent of a compound that is named as a salt.

Assay: zone of inhibition (ZOI) of antimicrobial accessories
Type: cell-based
Description: Examples 30-54 illustrate zone of inhibition (ZOI) data collected for antimicrobial accessories including minocycline HCl and/or rifampin. Various polymers and excipients were used in combination with minocycline HCl and/or rifampin. […] In Table 22, M stands for minocycline HCl, R stands for rifampin, SiO2 is silica, PVP is polyvinylpyrrolidone, BIO-PSA 7-4601 is a silicone PSA available from Dow Corning Corp, Midland, Mich., MDX4-4210 is a liquid silicone rubber available from Dow Corning, Corp., Midland, Mich., LSR Q7-4850 is a liquid silicone rubber available from Dow Corning, Corp., Midland, Mich., and MED-1137 a silicone adhesive available from NuSil Silicone Technology, Carpinteria, Calif.

SMILES	Average ZOI [mm]
CO[C@H]1/C=C/O[C@@]2(C)Oc3c(C)c(O)c4c(O)c(c(/C=N/N5CCN(C)CC5)c(O)c4c3C2=O)NC(=O)/C(C)=C\C=C\[C@H](C)[C@H](O)[C@@H](C)[C@@H](O)[C@@H](C)[C@H](OC(C)=O)[C@@H]1C [Example 31, rifampin]	17
CN(C)c1ccc(O)c2c1C[C@H]1C[C@H]3[C@H](N(C)C)C(O)=C(C(N)=O)C(=O)[C@@]3(O)C(O)=C1C2=O [Example 30, minocycline HCl]	16
